Experimental findings from US9018244B2, “Benzopyran compounds, compositions and uses thereof” (Olema Pharmaceuticals, Inc., priority 2011, dated 2015) are described below.

The nature of the data set: Single dose oral pharmacokinetics study in female rats. The class given is in vivo, female Sprague Dawley rats. The method, then: The oral bioavailabilty in rats of OP-1038 was determined in the following study. 3 rats (female Sprague Dawley, non-fasted) were dosed by oral gavage (5 mg/kg body weight) in 0.5% CMC in water with a comparison to intravenous dosing (3 mg/kg body weight). Plasma was collected at the following hourly time points from rats in both groups (0, 0.08, 1.0, 2.0, 4.0, 8.0, 16.0, 24.0, 48.0 and 96.0 hours post dosing). Plasma concentrations of OP-1038 were determined by HPLC.

Where [1] appears, read: Sprague-Dawley, rat, plasma, Oral, 5.00 mg/kg, female S.D. rats.

One may read the bioavailability as the share of a dose that reaches the circulation, judged against a reference dose that is usually intravenous. For orientation: Cmax means the highest concentration seen after dosing. As a reminder, the AUC(0-inf) is total exposure, with the tail of the curve extrapolated. Higher therefore signals high exposure. A word on the MRT last: it is a mean duration of stay, worked out from the concentration-time curve. In general, Tmax refers to the time from dosing to the highest level. As usually defined, the half-life is the time needed for the level to fall by half in the phase considered. Low values mean rapid decline, high ones slow decline.

Compound `CC1=C(c2ccc(O)cc2)C(c2ccc(OCCN3CC[C@@H](C)C3)cc2)Oc2cc(O)ccc21` (stereo partly drawn) [OP-1038, 3-(4-hydroxyphenyl)-4-methyl-2-(4-{2-[(3R)-3-methylpyrrolidin-1-yl]ethoxy}phenyl)-2H-chromen-7-ol] displayed an AUCextrap (Oral, 5.00 mg/kg, female S.D. rats) of 10.1 ± 6.26%. The bioavailability (Sprague-Dawley, rat, plasma, Oral 5 mg/kg compared to intravenous 3 mg/kg, female S.D. rats, read-out: F % (Oral bioavailability)) was found to be 18.9%. Where the note is “Sprague-Dawley, rat, plasma, Oral, 5.00 mg/kg, 0.5% CMC, female S.D. rats”, this compound yielded a Cmax of 24.8 ± 3 ng/mL. Further, under setting [1], the AUC(0-inf) was found to be 671 ± 44.8 ng·h/mL, the MRT last is 25.9 ± 3.37 h, the Tmax was found to be 2.33 ± 1.53 h and the half-life was 28.5 ± 11.6 h. Moreover, the AUC(0-t) (Sprague-Dawley, rat, plasma, Oral, 5.00 mg/kg, female S.D. rats, read-out: AUClast (0 to 96 h)) worked out at 603 ± 46.7 ng·h/mL. For the same compound, the “Oral bioavailability (in words)” value (oral gavage 5 mg/kg in rats) is “orally bioavailable”.
